Measurements reported in paper PMC9552235.

Assay: Macrolactamisation (Trp/pyrroloindoline CO2H + Val NH2): HATU 1.2 equiv pre-activation, slow syringe-pump addition to Et3N (15 equiv; 1.2 equiv for 12), after TFA N-Boc removal
Conditions: CH2Cl2/DMF (10:1 to 40:1), 0.6 mM, 2 steps

## C=CC(C)(C)[C@@]12C[C@@H]3C(=O)N[C@@H](C(C)C)C(=O)Nc4ccccc4C(=O)N(c4ccccc41)[C@@H]2N3C(C)=O
From C=CC(C)(C)[C@]12C[C@H](C(=O)O)N(C(C)=O)[C@H]1N(C(=O)c1ccccc1NC(=O)[C@@H](N)C(C)C)c1ccccc12, 12-membered ring, 37.0 h
  ring closure, yield over several steps: 0%

## C=CC(C)(C)[C@@]12C[C@H]3C(=O)N[C@@H](C(C)C)C(=O)Nc4ccccc4C(=O)N(c4ccccc41)[C@@H]2N3C(C)=O [(S)-endo-40 -> L-Trp-regio-endo-4]
From C=CC(C)(C)[C@]12C[C@@H](C(=O)O)N(C(C)=O)[C@H]1N(C(=O)c1ccccc1NC(=O)[C@@H](N)C(C)C)c1ccccc12, 12-membered ring, 22.0 h
  ring closure, yield over several steps: 37%

## C=CC(C)(C)[C@]12C[C@H]3C(=O)N[C@@H](C(C)C)C(=O)Nc4ccccc4C(=O)N(c4ccccc41)[C@H]2N3C(C)=O [(S)-exo-40 -> L-Trp-regio-exo-4 (moderately pure, unstable)]
From C=CC(C)(C)[C@@]12C[C@@H](C(=O)O)N(C(C)=O)[C@@H]1N(C(=O)c1ccccc1NC(=O)[C@@H](N)C(C)C)c1ccccc12, 12-membered ring, 15.0 h
  ring closure, yield over several steps: 21%

## CC(=O)N[C@@H]1Cc2cn(c3ccccc23)C(=O)c2ccccc2NC(=O)[C@H](C(C)C)NC1=O [H-L-Val-(2-aminobenzoyl)-(N-indole)-Ac-D-Trp-OH]
From CC(=O)N[C@H](Cc1cn(C(=O)c2ccccc2NC(=O)[C@@H](N)C(C)C)c2ccccc12)C(=O)O, 13-membered ring, 84.0 h
  ring closure, yield over several steps: 14%

## C=CC(C)(C)[C@]12C[C@@H]3C(=O)N[C@@H](C(C)C)C(=O)Nc4ccccc4C(=O)N(c4ccccc41)[C@H]2N3C(C)=O [endo-40 -> D-Trp-regio-endo-4]
From C=CC(C)(C)[C@@]12C[C@H](C(=O)O)N(C(C)=O)[C@@H]1N(C(=O)c1ccccc1NC(=O)[C@@H](N)C(C)C)c1ccccc12, 12-membered ring, 24.0 h
  ring closure, yield over several steps: 61%
